Test results as given in patent US20020026053A1, “Novel 3-(substituted) -2- indolinones compounds and use thereof as inhibitors of protein kinase activity” (priority 1997, published 2002).

Legend:
FLK-1 receptor = test: FLK-1 Assay (cellular/catalytic ELISA, VEGF-stimulated phosphotyrosine); assay type: cell-based; set-up: concentration or dose not given beside the values; conditions: protocol P.110
In short: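 NIH3T3 C7#3 cells engineered to express Flk-1 were serum-starved overnight (0.1% FBS), then exposed to compound for 2 h at 37 °C (final dilution 1:200, 0.5% DMSO) before VEGF stimulation. Lysates captured on anti-FLK-1 antiserum plates; phosphotyrosine detected by UB40 antibody/POD-ABTS ELISA versus untreated controls.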

PDGF-R = PDGF-R Assay (cellular ELISA, U1242 cells); assay type: cell-based; set-up: concentration or dose not given beside the values; conditions: protocol P.119
In short: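 U1242 cells seeded in 0.5% serum, serum-starved, then exposed to compound for 2 hr at 37°C before 5–10 min ligand stimulation and lysis in HNTG. Lysate captured on receptor-antibody-coated plates; phosphotyrosine detected with polyclonal anti-pTyr, goat anti-rabbit IgG and ABTS/H2O2, A410 (ref 630 nm), versus untreated cells.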

Compound | Flk Kinase % Inhibition (P.110) (FLK-1 receptor) [%] | PDGF Kinase % Inhibition (P.119) (PDGF-R) [%]
O=C1Nc2ccc(S(=O)(=O)N3CCOCC3)cc2C1=Cc1cc(O)c(O)c(O)c1 [10739/F07] | 0.6 | 23.7
COc1ccc(Oc2cccc(C=C3C(=O)Nc4ccc(S(=O)(=O)N5CCOCC5)cc43)c2)cc1 [10739/F08] | 7.0 | 9.1
CN(C)CCCOc1ccc(C=C2C(=O)Nc3ccc(S(=O)(=O)N4CCOCC4)cc32)cc1 [10739/F09] | 15.6 | 3.3
O=C1Nc2ccc(S(=O)(=O)N3CCOCC3)cc2C1=Cc1ccoc1 [10739/F10] | 12.3 | 4.2
O=C1Nc2ccc(S(=O)(=O)N3CCOCC3)cc2C1=Cc1ccc(CO)o1 [10739/F11] | 11.9 | 0.8
COc1ccc(C=C2C(=O)Nc3ccc(CCCl)cc32)cc1C [10739/G02] | 5.9 | −12.2
O=C1Nc2ccc(CCCl)cc2C1=Cc1cccc(OCc2ccccc2)c1 [10739/G03] | 1.9 | −6.9
O=C1Nc2ccc(CCCl)cc2C1=Cc1ccc(OCc2ccccc2)cc1 [10739/G04] | 4.5 | −3.5
O=C1Nc2ccc(CCCl)cc2C1=CC1COc2ccccc2O1 (centres unmarked) [10739/G05] | 10.7 | −5.9
O=C1Nc2ccc(CCCl)cc2C1=Cc1ccc(O)cc1Cl [10739/G06] | 14.0 | −6.4
O=C1Nc2ccc(CCCl)cc2C1=Cc1cc(O)c(O)c(O)c1 [10739/G07] | −4.9 | 10.1
COc1ccc(Oc2cccc(C=C3C(=O)Nc4ccc(CCCl)cc43)c2)cc1 [10739/G08] | 15.0 | 1.3
CN(C)CCCOc1ccc(C=C2C(=O)Nc3ccc(CCCl)cc32)cc1 [10739/G09] | 3.1 | 13.9
O=C1Nc2ccc(CCCl)cc2C1=Cc1ccoc1 [10739/G10] | −2.0 | −0.6
O=C1Nc2ccc(CCCl)cc2C1=Cc1ccc(CO)o1 [10739/G11] | 9.8 | 7.6
COc1ccc(C=C2C(=O)Nc3c(Br)cc(Br)c(C)c32)cc1C [10739/H02] | 2.2 | −18.6
Cc1c(Br)cc(Br)c2c1C(=Cc1cccc(OCc3ccccc3)c1)C(=O)N2 [10739/H03] | 1.6 | −19.5
Cc1c(Br)cc(Br)c2c1C(=Cc1ccc(OCc3ccccc3)cc1)C(=O)N2 [10739/H04] | 9.9 | −14.2
Cc1c(Br)cc(Br)c2c1C(=Cc1ccc(O)cc1Cl)C(=O)N2 [10739/H06] | 35.6 | −17.1
Cc1c(Br)cc(Br)c2c1C(=Cc1cc(O)c(O)c(O)c1)C(=O)N2 [10739/H07] | −1.4 | 14.9
COc1ccc(Oc2cccc(C=C3C(=O)Nc4c(Br)cc(Br)c(C)c43)c2)cc1 [10739/H08] | 4.0 | −3.5
Cc1c(Br)cc(Br)c2c1C(=Cc1ccoc1)C(=O)N2 [10739/H10] | 15.0 | −13.2
